assay: RP, Thermo Scientific Acclaim RSLC 120 C18, 100 × 2.1 mm, 2.2 µm, 30 °C, 0.2 mL/min, estimated dead time 1.1 min; A: 90% water + 10% methanol + 0.01% formic acid + 5 mM ammonium formate, pH 3.61; B: methanol + 0.01% formic acid + 5 mM ammonium formate, pH 3.61; gradient (min/%B) 0/1 1/1 2/39 13/99.9 15/99.9 15.1/1 20.1/1; settings: stereoisomer not certain

| Compound | LC retention time |
| --- | --- |
| CCCC(NC)C(=O)c1ccc2c(c1)OCO2 (stereo unspecified) [Pentylone] | 4.99 min |
| CN1C(=O)CC(=O)N(c2ccccc2)c2cc(Cl)ccc21 [Clobazam] | 8.08 min |
| CCSc1cc(OC)c(CCN)cc1OC [2CT-2] | 5.88 min |
| CCCCCCCCc1ccc(OCCO)cc1 [Octylphenol monoethoxylates (OP1EO)_NH4 adduct] | 12.4 min |
| N#Cc1ccc2c(c1)N(CCCN1CCC(O)CC1)c1ccccc1S2 [Periciazine] | 7.45 min |
| CCOP(=O)(OCC)OP(=O)(OCC)OCC [TEPP] | 6.49 min |
| O=C(Nc1cccc2ccccc12)c1nn(CCCCCF)c2ccccc12 [5-fluoro MN-18] | 11.8 min |
| CCCCCn1cc(C(=O)N2CCN(C)CC2)c2ccccc21 [MEPIRAPIM] | 7.75 min |
| O=C(Nc1cccc2ccccc12)c1cn(CCCCCF)c2ccncc12 [PCN-5F] | 11.8 min |
| CCOc1ccccc1OS(=O)(=O)NC(=O)Nc1nc(OC)cc(OC)n1 [Ethoxysulfuron] | 9.32 min |
| CC(C)OC(=O)NC(C(=O)NC(C)c1nc2ccc(F)cc2s1)C(C)C (stereo unspecified) [Benthiavalicarb-isopropyl] | 9.48 min |
| OC(CNCC(O)C1CCc2cc(F)ccc2O1)C1CCc2cc(F)ccc2O1 (stereo unspecified) [Nebivolol] | 8.28 min |
| C#CCNC(C)Cc1ccccc1 (stereo unspecified) [Deprenyl-Nor] | 4.66 min |
| CNC(=O)Oc1cccc(N=CN(C)C)c1 [Formetanate] | 3.14 min |
| CCCc1cc(C(N)=S)ccn1 [Protionamide] | 6.36 min |
| OCCN1CCN(CCCN2c3ccccc3Sc3ccc(Cl)cc32)CC1 [Perphenazine] | 9.55 min |
| COC(=O)COCCN1CCN(C(c2ccccc2)c2ccc(Cl)cc2)CC1 (stereo unspecified) [Cetirizine-Methyl ester] | 8.86 min |
| CC(C)(C)C(NC(=O)c1cn(CCCCCF)c2ccccc12)C(N)=O (stereo unspecified) [ADBICA-5F] | 9.72 min |
| c1coc(-c2nc3ccccc3[nH]2)c1 [Fuberidazole] | 6.48 min |
| COc1ccc2cc(CCC(C)=O)ccc2c1 [Nabumetone] | 9.82 min |
| CCc1cc2c(s1)-n1c(C)nnc1CN=C2c1ccccc1 [Deschloroetizolam] | 8.43 min |
| NC(N)=NCC1COc2ccccc2O1 (stereo unspecified) [Guanoxan] | 4.57 min |

| Compound | LC retention time |
| --- | --- |
| CNC(C)C(O)c1ccc(O)cc1 (stereo unspecified) [Synphrine-Methyl] | 2.05 min |
| CC(=O)c1ccc2c(c1)N(CCCN(C)C)c1ccccc1S2 [Acepromazine] | 7.47 min |
| CNC(=O)Oc1cc(C)c(S(C)(=O)=O)c(C)c1 [Methiocarb-sulfone] | 5.28 min |
| CC(C)CC(N(C)C)C1(c2ccc(Cl)cc2)CCC1 (stereo unspecified) [Sibutramine] | 8.66 min |
| CC1N=C(c2ccccc2Cl)c2cc([N+](=O)[O-])ccc2NC1=O (stereo unspecified) [Meclonazepam] | 8.28 min |
| CC(=O)N(CC(O)CO)c1c(I)c(C(=O)NCC(O)CO)c(I)c(C(=O)NCC(O)CO)c1I (stereo unspecified) [Iohexol] | 2.98 min |
| Cc1cc2n[nH]nc2cc1C [Benzotriazole-5 6-di-Me] | 6.76 min |
| CN1COCN(Cc2cnc(Cl)s2)C1=N[N+](=O)[O-] [Thiamethoxam] | 4.25 min |
| CCCCn1cc(C(=O)c2cccc3ccccc23)c2ccccc21 [JWH-073] | 11.9 min |
| c1ccc2scnc2c1 [Benzothiazole (BTH)] | 6.88 min |
| COc1ccc2c3c([nH]c2c1)C(C)=NCC3 [Harmaline] | 5.06 min |
| NC(CC(=O)N1CCn2c(nnc2C(F)(F)F)C1)Cc1cc(F)c(F)cc1F (stereo unspecified) [Sitagliptin] | 5.08 min |
| CC12CCC(=O)C=C1C=CC1C2CCC2(C)C1CCC21CCC(=O)O1 (stereo unspecified) [Canrenone] | 9.77 min |
| CC(=O)OC1C(C)OC(n2cc(F)c(N)nc2=O)C1OC(C)=O (stereo unspecified) [Cytidine-2' 3'-di-O-acetyl-5'-deoxy-5-fluoro] | 5.06 min |
| CC1COc2ccccc2N1C(=O)C(Cl)Cl (stereo unspecified) [Benoxacor] | 8.87 min |
| Cc1cccc(Nc2ccccc2C(=O)O)c1C [Mefenamic acid] | 11.6 min |
| O=[N+]([O-])c1cncn1CCN1CCOCC1 [Nimorazole] | 4.09 min |
| COc1c(Cl)ccc(Cl)c1C(=O)O [Dicamba] | 4.97 min |
| CN1CCN(CCCN2c3ccccc3Sc3ccc(S(=O)(=O)N(C)C)cc32)CC1 [Thioproperazine] | 8.15 min |
| Cc1nnc2n1-c1ccc(Cl)cc1C(c1ccccc1)=NC2 [Alprazolam] | 8.36 min |
| Cc1c(COC(=O)C2C(C=C(Cl)C(F)(F)F)C2(C)C)cccc1-c1ccccc1 (stereo unspecified) [Bifenthrin] | 14.1 min |
| c1ccc2sc(SN3CCOCC3)nc2c1 [2-Morpholinothiobenzothiazole] | 9.85 min |

| Compound | LC retention time |
| --- | --- |
| O=c1c2cc(F)ccc2nc(-n2cncn2)n1-c1ccc(Cl)cc1Cl [Fluquinconazole] | 10.1 min |
| Nc1ncnc(Nc2ccc(Cl)cc2)n1 [Chlorazanil] | 7.46 min |
| CCC(C(=O)O)C1OC(C(C)C(O)C(C)C(=O)C(CC)C2OC3(C=CC(O)C4(CCC(C)(C5CCC(O)(CC)C(C)O5)O4)O3)C(C)CC2C)C(C)CC1C (stereo unspecified) [Narasin] | 16.1 min |
| COc1ncnc(NS(=O)(=O)c2ccc(N)cc2)c1OC [Sulfadoxine] | 4.75 min |
| O=c1n(CCCN2CCN(c3cccc(Cl)c3)CC2)nc2ccccn12 [Trazodone] | 6.48 min |
| CCC1COC(Cn2cncn2)(c2ccc(Cl)cc2Cl)O1 (stereo unspecified) [Etaconazole] | 10.2 min |
| CNC(=O)Oc1cc(C)c(N(C)C)c(C)c1 [Mexacarbate] | 9.3 min |
| CCOc1ccccc1C(N)=O [Ethenzamide] | 5.68 min |
| COc1cc(OC)nc(NC(=O)NS(=O)(=O)c2c(-c3nnn(C)n3)cnn2C)n1 [Azimsulfuron] | 7.62 min |
| CN(C)CCC=C1c2ccccc2CCc2ccccc21 [Amitriptyline] | 8.23 min |
| CN(Cc1nc2c(N)nc(N)nc2[nH]c1=O)c1ccc(C(=O)NC(CCC(=O)O)C(=O)O)cc1 (stereo unspecified) [7-Hydroxymethotrexat] | 4.69 min |
| COc1cc2c(cc1OC)C13CCN4CC5=CCOC6CC(=O)N2C1C6C5CC43 (stereo unspecified) [Brucine] | 4.21 min |
| CCOP(=S)(OCC)SCn1c(=O)oc2cc(Cl)ccc21 [Phosalone] | 11.3 min |
| CCOP(=S)(OCC)Oc1cnccn1 [Thionazin (Zinophos)] | 8.35 min |
| O=C1OCCN1N=Cc1ccc([N+](=O)[O-])o1 [Furazolidone] | 4.19 min |
| CCCCCn1nc(C(=O)NC(C(N)=O)C(C)C)c2ccccc21 (stereo unspecified) [AB-PINACA] | 10.5 min |
| COP(=S)(OC)SCN1C(=O)c2ccccc2C1=O [Phosmet] | 8.94 min |
| COC1CC(OC2C(C)OC(OC3C(C)=CCC4CC(CC5(C=CC(C)C(C(C)C)O5)O4)OC(=O)C4C=C(C)C(O)C5OCC(=CC=CC3C)C45O)CC2OC)OC(C)C1O (stereo unspecified) [AvermectinB1b (Abamectin)] | 13.4 min |
| CCCCOCCOCCSC#N [Lethane 384] | 8.12 min |
| Cc1nc(NS(=O)(=O)c2ccc(N)cc2)oc1C [Sulfamoxole] | 4.11 min |
| OCCN(CCO)c1nc(N2CCCCC2)c2nc(N(CCO)CCO)nc(N3CCCCC3)c2n1 [Dipyridamole] | 9.36 min |
| CN1CSC(=S)N(C)C1 [Dazomet] | 3.97 min |

| Compound | LC retention time |
| --- | --- |
| CCCCCCCCCCCCCC[N+](C)(C)Cc1ccccc1 [Benzyldimethyltetradecylammonium] | 12.2 min |
| NC(=O)c1ccccc1C(=O)O [Phthalamic acid] | 2.87 min |
| COC(=O)C(C)Oc1ccc(Cl)cc1C (stereo unspecified) [Mecoprop-methylester] | 10.6 min |
| NCC1CCC(C(=O)O)CC1 (stereo unspecified) [Tranexamic acid] | 1.79 min |
| Cc1cc(C(C)(C)C)cc(C)c1CC1=NCCN1 [Xylometazoline] | 7.75 min |
| Cc1c(C(=O)c2cccc3ccccc23)c2cccc3c2n1C(CN1CCOCC1)CO3 (stereo unspecified) [WIN-55-212-2] | 10.9 min |
| CC1NCCOC1c1ccccc1 (stereo unspecified) [Phenmetrazine] | 4.14 min |
| NC(=O)N1c2ccccc2C2OC2c2ccccc21 (stereo unspecified) [Carbamazepine-10.11-epoxide] | 6.04 min |
| Cc1nc2n(c(=O)c1CCN1CCC(c3noc4cc(F)ccc34)CC1)CCCC2 [Risperidone] | 5.88 min |
| COc1ccc(C(=O)c2cn(CCCCC(=O)O)c3ccccc23)cc1 [RCS-4-M-5-COOH-Pentyl] | 8.81 min |
| CC(C)CC1Nc2cc(Cl)c(S(N)(=O)=O)cc2S(=O)(=O)N1 (stereo unspecified) [Butizide] | 6.14 min |
| O=S(=O)(O)c1nc2ccccc2s1 [2-Benzothiazolesulfonic acid] | 4.48 min |
| Cc1nnc(SCC2=C(C(=O)O)N3C(=O)C(NC(=O)Cn4cnnn4)C3SC2)s1 (stereo unspecified) [Cefazolin] | 4.16 min |
| CCCCCCCCCCCCCC[N+](C)(C)[O-] [N,N-Dimethyltetradecylamine-N-oxide] | 12.6 min |
| CCN(CC)CCNC(=O)c1ccc(N)cc1 [Procainamide] | 2.83 min |
| N=C(N)c1ccccc1 [Benzamidine] | 2.63 min |
| CCCCOC(=O)c1ccccc1C(=O)OCCCC [Phthalate-Di-n-butyl] | 12 min |
| CNC(=O)N(C)c1nc2ccccc2s1 [Methabenzthiazuron] | 8.26 min |
| CCN(CC)C(C)C(=O)c1ccccc1 (stereo unspecified) [Amfepramone] | 4.11 min |
| CNC(=O)Nc1ccc(Cl)c(Cl)c1 [3-4-(dichlorophenyl)-3-methyl urea] | 8.51 min |

From the RepoRT retention time repository (doi:10.1021/acs.analchem.2c02893)
